This note sets out measurements from patent EP0401096A1, “Agents and complexes of ion Mg++ facilitating absorption of magnesium in a human or animal organism, and pharmaceutical or dietetic compositions useful for the administration of magnesium in a human or animal organism” (LABORATOIRES LUCIEN, priority 1989, dated 1990).

Data set [1] is described as follows: Magnesium balance in rats after oral administration (first experiment, 3 lots of 20). Type of data set: in vivo, rat. As to conditions: mean (M), oral 38,88 mg de Mg2+/kg. The protocol: L'essai porte sur 60 rats mâles S.P.F. de souche "CD", d'un poids moyen de 60 à 80 g à leur arrivée. Ils sont maintenus en animalerie conventionnelle dans des conditions identiques de température (21°C +/- 1°C), d'hygrométrie (40 à 70 %) et de luminosité (12h/24).
Dès leur arrivée, les animaux sont placés en cage à métabolisme et reçoivent un aliment contenant 570 mg de Mg2+/kg : concentration nécessaire et suffisante pour maintenir chez l'animal une magnésémie normale.
4 jours après leur arrivée, au temps "t-16h" de l'essai, soit 16 h avant l'administration des traitements (temps "t"), les animaux sont pesés, mis à jeun et le volume d'eau déminéralisée mis à leur disposition est exactement mesuré.
Au temps "t-1h" soit 1 h avant l'administration des traitements, l'eau de boisson est retirée. Elle est redistribuée 30 minutes après cette administration, le volume étant exactement mesuré.
Au temps "t+24h" les animaux sont sacrifiés par dislocation cervicale et le contenu de la vessie et des intestins est prélevé.
Les animaux sont répartis en 3 lots de 20 animaux chacun : • . Lot I : Témoins recevant 40 ml/kg d'eau déminéralisée; • . Lot II : Traités recevant 38,88 mg de Mg2+/kg sous forme de MgCl2, sous un volume de 40 ml/kg d'eau déminéralisée; • . Lot III : Traités recevant l'association "MgCl2 + acide malique" à la dose de 38,88 mg de Mg2+/kg sous forme de MgCl2 + 408 mg d'acide malique/kg, sous un volume de 40 ml/kg d'eau déminéralisée (pH ajusté à 5), ce qui correspond à une concentration en magnésium CMg = 0,04 mol.dm-3 et à une concentration de (DL)-malate CDLM = 0,076 mol.dm-3.
• a/ - Avant traitement : "t - 16 h" à "t" . Recueil des urines et mesure du volume. . Mesure de la consommation hydrique/15 h (les animaux étant privés d'eau de boisson 1 h avant l'administration des traitements). • b/ - Traitement : "t" . Pesée des animaux. . Administration des traitements, voie orale, par tubage oesophagien. • c/ - Après traitement : "t" à "t + 24 h" • c.1. Exploration urinaire : . […]

A short description of data set [2]: Magnesium balance in rats after oral administration (experiment coded 1.33, 4 lots of 18). The class given is in vivo, rat. As to conditions: mean (M), experiment 1.33. An excerpt: D'autres expérimentations basées sur des protocoles comparables ont confirmé les résultats ci-dessus. Elles ne feront pas toutefois l'objet d'une présentation en détails. Seuls les résultats de l'expérimentation suivante mettant en jeu l'acide malique et l'acide citrique seront présentés de façon globale dans les tableaux 10 et 11 ci-après.
La nouvelle expérimentation (codée 1.33) a été réalisée sur 4 lots de 18 animaux chacun, les lots I, II et III recevant les mêmes traitements que ceux administrés aux lots correspondants dans le cadre de l'expérimentation précédente et le lot IV recevant l'association "MgCl2 + acide citrique" à la dose de 38,88 mg de Mg2+/kg sous forme de MgCl2 + 1345 mg d'acide citrique/kg, sous un volume de 40 ml/kg d'eau déminéralisée (pH ajusté à 5), ce qui correspond à une concentration en magnésium CMg = 0,04 mol.dm-3 et à une concentration de citrate CTA = 0,16 mol.dm-3. Tableau 10

Data set [3] in a line: Potentiometric titration, protonation constants of the ligand ([…]). Type of data set: physicochemical. The settings on record: proton-malonate, aqueous solution, 37°C. The protocol:
La méthode potentiométrique associée aux techniques informatiques a été utilisée pour cette étude. Les constantes de protonation du ligand, utilisées par la suite comme références, ont été calculées au moyen d'un programme informatique ([…]) à partir de données expérimentales provenant de titrages réalisés en solution aqueuse à 37°C et sous atmosphère d'azote.
(§1) A partir des données expérimentales des titrages, le programme […] calcule les constantes par la méthode des moindres carrés. Parmi les différentes combinaisons de complexes possibles, seules sont retenues celles pour lesquelles les critères numériques (notamment la somme des carrés des résidus) sont convenables. Le meilleur ensemble est finalement choisi d'après le tracé des courbes de formation simulées au moyen d'un troisième programme informatique (PSEUDOPLOT) : c'est celui qui permet d'obtenir la meilleure coïncidence entre courbes expérimentale (figure 2) et simulée (figure 3).

Data set [4] can be described thus: Potentiometric titration, formation constants of magnesium-ligand complexes ([…], ZAPAPLOT, PSEUDOPLOT). Type of data set: physicochemical. The settings on record: magnésium-malonate, 37°C.
Excerpt: La complexation dans chaque système magnésium-ligand a ensuite été étudiée à partir de plusieurs titrages en solution aqueuse du ligand en présence de magnésium, pour différents rapports de concentrations métal-ligand correspondant à l'éventail le plus large possible de conditions thérapeutiques. Ces dosages se traduisent graphiquement par le tracé des courbes de protonation s = f ( -log[H] ), où s est le nombre moyen de protons liés au ligand. Ce type de courbes permet de visualiser la complexation. Par exemple, sur la figure 1, relative au système magnésium-malonate, on a représenté la courbe de protonation de référence du ligand par un trait plein et matérialisé les points expérimentaux des titrages du ligand en présence de magnésium par les symboles +, x, , □, ◁ dans l'ordre des rapports de concentrations métal/ligand croissants. On remarque deux zones de pH différentes : - l'une, de pH 2 à 3, pour laquelle les points se superposent à la courbe de protonation de référence, ce qui dénote une absence totale de complexation, - l'autre, de pH 3 à 7, pour laquelle les points sont décalés vers la gauche par rapport à la protonation de référence, c'est-à-dire vers des pH plus acides. Il y a donc une libération d'ions H+ en solution due à la complexation des ions Mg2+ par le malonate.
Cette complexation est confirmée par le tracé de la courbe de formation expérimentale p = f ( -log [L] ) au moyen d'un autre programme (ZAPAPLOT) où p est le nombre moyen de ligands liés au métal (représenté par le degré de formation DF à la figure 2). L'allure de cette courbe donne une idée de la forme sous laquelle le ligand intervient dans les complexes formés et permet d'estimer la valeur de leurs constantes de formation.
as §1

Data set [5] in a line: Potentiometric titration, formation constants of calcium-ligand complexes. The class given is physicochemical. The settings on record: calcium-malonate, complexe ML (charge 0); 37°C. An excerpt: Trois cas possibles a priori ont été effectivement rencontrés : • i) si aucune complexation n'est constatée dans les conditions expérimentales précisées plus haut, c'est à dire si le degré de complexation reste nul sur tout le domaine de concentrations en ligand examiné, aucune espèce complexe indépendante ne peut exister dans le fluide gastro-intestinal. Ceci ne signifie pas que les ligands envisagés ne puissent pas coordonner le magnésium à des concentrations beaucoup plus élevées, mais cette possibilité se rapportant à des conditions extra-physiologiques ne présente pas d'intérêt dans le cadre de l'invention. • ii) si l'ensemble de complexes sélectionné d'après les critères ci-dessus n'est constitué que d'espèces ionisées, il est impossible à ces dernières de se dissoudre dans la membrane phospholipidique; les ligands correspondants ne peuvent donc être utilisés comme vecteurs pour l'absorption gastro-intestinale du magnésium. • iii) si l'ensemble retenu contient une ou plusieurs espèces neutres, les ligands correspondants peuvent être a priori des vecteurs efficaces pour l'absorption du magnésium par les membranes séparant le biofluide d'un biofluide voisin. Leur efficacité dépendra toutefois de la proportion de ces espèces neutres dans les conditions thérapeutiques. […]

Where [6] appears, read: coefficient d'utilisation digestive.

With `[Cl-].[Cl-].[Mg+2]` [Lot II, MgCl2], the C. abs. in data set [1] (coefficient d'absorption) is on record as 38,948; in data set [2] (coefficient d'absorption) it was 30,19. The C.u.d. in data set [1] (setting [6]) was 73,617; in data set [2] (setting [6]) it was 66,89. Moreover, the C.r. is given as 50,083 in data set [1] (coefficient de rétention) and 43,78 in data set [2] (coefficient de rétention). For the same compound, the MgF/24 h in data set [2] (faecal magnesium, oral 38,88 mg de Mg2+/kg) is 2,003 mg/100 g de rat. Also, in data set [2] (urinary magnesium, oral 38,88 mg de Mg2+/kg), the MgU/24 h is 1,873 mg/100 g de rat.

For the compound `O=C(O)CC(=O)O` [MLO, malonate], the “log β” value was 7,815 in data set [3] (complexe LH2); 5,235 in data set [3] (complexe LH); 5,266 in data set [4] (complexe ML3); 2,064 in data set [4] (complexe ML (charge 0)); 6,326 in data set [4] (complexe MLH-1); 5,524 in data set [4] (complexe MLH). In addition, in data set [5], the “log β” value was 1,511.
